# Assay results reported in ChEMBL document CHEMBL1201862, “PubChem BioAssay data set” (2004).
#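 Briefly, cells in 96-well plates were exposed to five compound concentrations for 48 h, and endpoints were estimated by linear interpolation. GI50 is the concentration that inhibits growth by half.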 Calls of active or inactive are those of the source. Rule as the data show it: active = GI50 up to about 1.1 µM and inactive = higher.
# Columns and labels:
# Test in all cases: growth of human tumour cells (NCI), 48 h
# NCI-H226 = system: NCI-H226
# A498 = system: A498
# CAKI-1 = system: CAKI-1
# UO-31 = system: UO-31
# K562 = system: K562
# KM12 = system: KM12
# NCI/ADR-RES = system: NCI/ADR-RES
# RPMI-8226 = system: RPMI-8226
# M14 = system: M14
# SK-MEL-5 = system: SK-MEL-5
# SNB-19 = system: SNB-19
# T47D = system: T47D
# IGROV-1 = system: IGROV-1
# SK-MEL-28 = system: SK-MEL-28
# CCRF-CEM = system: CCRF-CEM
# SK-MEL-2 = system: SK-MEL-2
# MDA-N = system: MDA-N
# BT-549 = system: BT-549
# HCC 2998 = system: HCC 2998
# ACHN = system: ACHN
Structure (SMILES),GI50 (NCI-H226),GI50 (A498),GI50 (CAKI-1),GI50 (UO-31),GI50 (K562),GI50 (KM12),GI50 (NCI/ADR-RES),GI50 (RPMI-8226),GI50 (M14),GI50 (SK-MEL-5),GI50 (SNB-19),GI50 (T47D),GI50 (IGROV-1),GI50 (SK-MEL-28),GI50 (CCRF-CEM),GI50 (SK-MEL-2),GI50 (MDA-N),GI50 (BT-549),GI50 (HCC 2998),GI50 (ACHN)
[N-]=[N+]=CC(=O)COC(=O)c1ccccc1,> 100 µM (inactive),> 100 µM (inactive),> 100 µM (inactive),> 100 µM (inactive),> 100 µM (inactive),> 100 µM (inactive),> 100 µM (inactive),74.1 µM (inactive),> 100 µM (inactive),> 100 µM (inactive),> 100 µM (inactive),> 100 µM (inactive),> 100 µM (inactive),> 100 µM (inactive),> 100 µM (inactive),> 100 µM (inactive),> 100 µM (inactive),> 100 µM (inactive),> 100 µM (inactive),> 100 µM (inactive)
CC(=O)OC1=CC2(OC(C)=O)CC(C)(C)C1C1C(=O)C=CC(=O)C12 (stereo not given),29.4 µM (inactive),72.8 µM (inactive),> 63.5 µM (inactive),> 70 µM (inactive),97.1 µM (inactive),> 100 µM (inactive),49.8 µM (inactive),> 66.8 µM (inactive),> 79.3 µM (inactive),> 85.3 µM (inactive),> 100 µM (inactive),49.4 µM (inactive),> 50.7 µM (inactive),41.4 µM (inactive),> 100 µM (inactive),> 100 µM (inactive),31.1 µM (inactive),11.3 µM (inactive),> 58.3 µM (inactive),20.1 µM (inactive)
COC(=O)/C=C1/OC(c2ccc(C)cc2)=C(Cl)C1=O,23 µM (inactive),17.9 µM (inactive),16 µM (inactive),17.5 µM (inactive),4.97 µM (inactive),14.6 µM (inactive),22.1 µM (inactive),3.18 µM (inactive),18.1 µM (inactive),14.5 µM (inactive),22.2 µM (inactive),15.3 µM (inactive),16.5 µM (inactive),16.7 µM (inactive),3.26 µM (inactive),16.7 µM (inactive),16.4 µM (inactive),17.7 µM (inactive),18.9 µM (inactive),16.7 µM (inactive)
CC(C(=O)OCc1ccccc1)(c1ccco1)N1C(=O)OC(c2ccccc2)C1c1ccccc1 (stereo not given),> 100 µM (inactive),> 59.8 µM (inactive),> 100 µM (inactive),6.34 µM (inactive),7.18 µM (inactive),> 25.8 µM (inactive),> 100 µM (inactive),4.37 µM (inactive),> 100 µM (inactive),> 30.1 µM (inactive),> 100 µM (inactive),5.96 µM (inactive),> 100 µM (inactive),> 100 µM (inactive),4.04 µM (inactive),> 100 µM (inactive),> 51.1 µM (inactive),> 100 µM (inactive),> 100 µM (inactive),> 100 µM (inactive)
COC(=O)C1CC23C=CCN4CC(C2C)C2(c5ccccc5NC12)C43 (stereo not given),> 100 µM (inactive),> 100 µM (inactive),> 100 µM (inactive),,> 100 µM (inactive),> 100 µM (inactive),> 100 µM (inactive),> 100 µM (inactive),> 100 µM (inactive),> 100 µM (inactive),> 100 µM (inactive),> 100 µM (inactive),> 100 µM (inactive),> 100 µM (inactive),> 100 µM (inactive),> 100 µM (inactive),> 100 µM (inactive),> 100 µM (inactive),> 100 µM (inactive),> 100 µM (inactive)
CC(=O)Nc1ccc(S(=O)(=O)/N=C2\C=CC(=O)c3ccccc32)cc1,5.97 µM (inactive),10.3 µM (inactive),17.3 µM (inactive),7.48 µM (inactive),2.57 µM (inactive),10.5 µM (inactive),5.9 µM (inactive),4.56 µM (inactive),4.44 µM (inactive),2.88 µM (inactive),11.6 µM (inactive),8.17 µM (inactive),2.58 µM (inactive),10.5 µM (inactive),3.37 µM (inactive),14.3 µM (inactive),1.95 µM (inactive),12.1 µM (inactive),3.21 µM (inactive),7.35 µM (inactive)
Cc1ccc(S(=O)(=O)N(CC(O)COc2ccccc2)c2c(F)c(F)cc(F)c2F)cc1 (stereo not given),23.1 µM (inactive),20.3 µM (inactive),15.3 µM (inactive),20.4 µM (inactive),,25.7 µM (inactive),18.1 µM (inactive),18.7 µM (inactive),23.7 µM (inactive),15.9 µM (inactive),27.6 µM (inactive),19.7 µM (inactive),,19.5 µM (inactive),33.4 µM (inactive),17.2 µM (inactive),17.2 µM (inactive),24.5 µM (inactive),23.6 µM (inactive),21.2 µM (inactive)
COc1cccc2c(NNc3ccccc3)c3ccc([N+](=O)[O-])cc3nc12,24.9 µM (inactive),43.5 µM (inactive),12 µM (inactive),8.67 µM (inactive),83.4 µM (inactive),11.6 µM (inactive),41.5 µM (inactive),7.1 µM (inactive),24 µM (inactive),37.6 µM (inactive),> 100 µM (inactive),36.4 µM (inactive),21.7 µM (inactive),43.2 µM (inactive),12.5 µM (inactive),25.8 µM (inactive),33.1 µM (inactive),12.1 µM (inactive),32.7 µM (inactive),20.2 µM (inactive)
COc1cc(/C=C/C(=O)OC2C(O)C3CC(OC(=O)c4cc(OC)c(OC)c(OC)c4)CC2N3C)cc(OC)c1OC (stereo not given),12.1 µM (inactive),8.04 µM (inactive),27 µM (inactive),10.4 µM (inactive),> 50 µM (inactive),25.3 µM (inactive),13.7 µM (inactive),33 µM (inactive),> 50 µM (inactive),16.5 µM (inactive),12.9 µM (inactive),14.5 µM (inactive),0.43 µM (active),,17.9 µM (inactive),47.1 µM (inactive),36.4 µM (inactive),> 50 µM (inactive),15 µM (inactive),21.9 µM (inactive)
O=S(=O)(O)c1cc(S(=O)(=O)O)c2c(Nc3ccnc4ccccc34)ccc(S(=O)(=O)O)c2c1,> 100 µM (inactive),> 100 µM (inactive),> 100 µM (inactive),> 100 µM (inactive),,> 100 µM (inactive),> 100 µM (inactive),> 100 µM (inactive),> 100 µM (inactive),> 100 µM (inactive),> 100 µM (inactive),> 100 µM (inactive),> 100 µM (inactive),> 100 µM (inactive),> 100 µM (inactive),> 100 µM (inactive),> 100 µM (inactive),> 100 µM (inactive),> 100 µM (inactive),> 100 µM (inactive)
